Legend:
[1] = biological target: T1, TTR in human blood plasma (Homo sapiens, UniProt P02766); assay: Modification of TTR in human blood plasma (immunocapture, RP-HPLC); assay type: binding; conditions: compound 10.8 μM, 24 hours, 37° C.; maximum 50%
T1 construct: RP-HPLC analysis of TTR captured from human plasma; from tissue; host or cells: human blood plasma
Procedure: Compounds 1-4 (10.8 μM) were incubated for 24 hours at 37° C. with human plasma, wherein the TTR concentration is 3.6-5.4 μM.
Furthermore, compound A2 was evaluated to determine its ability to bind selectively to and then react chemoselectively with TTR over the 4000+ other proteins in human blood plasma. Compound A2 (10.8 μM) was incubated with human blood plasma (TTR concentration is 3.6-5.4 μM) for 24 hours at 37° C. before immunoisolating human TTR using a Sepharose® resin-conjugated anti-TTR polyclonal antibody [Purkey et al., Proc. Natl. Acad. Sci. U.S.A. 2001, 98, 5566-5571].
The modification ratio of TTR by kinetic stabilizers in human plasma was evaluated as described [Purkey et al., Proc. Natl. Acad. Sci. U.S.A. 98:5566-5571 (2001)] with minor modifications. Briefly, compounds (7.5 μL of 1.44 mM solution in DMSO) were added to 1 mL of human plasma and incubated at 37° C. for 24 hours on a rocker (30 rpm). A 1:1 (v/v) slurry of unfunctionalized Sepharose® resin in 10 mM Tris, 140 mM NaCl, pH 8.0 (TSA) was added and the solutions were incubated for 1 hour at 4° C. on a rocker plate, followed by brief centrifugation.
Two 400 μL aliquots of the supernatants were added to 300 μL of 1:1 (v:v) slurry of anti-TTR antibody-conjugated Sepharose® resin in TSA. The solutions were gently rocked at 4° C. for 20 minutes (30 rpm), centrifuged, and supernatants were removed. The resin was washed by shaking for 1 minute in 1 mL of TSA solution containing 0.05% saponin (three times) and then 1 mL of TSA solution (twice). The TTR and bound test compound were dissociated from the resin by adding 155 μL of triethylamine (100 mM, pH 11.5) and vortexing for 1 minute. After centrifugation, 135 μL of solution containing test compound and TTR was analyzed by RP-HPLC as described above except that the linear gradients were run from 100:0 to 0:100 A:B for 45 minutes.

K15A-TTR [2] = biological target: T2, K15A-TTR (Homo sapiens, UniProt P02766, K35A); assay: RP-HPLC analysis of reaction with K15A-TTR homotetramer; assay type: binding
T2 construct: composed of 127-residue β-sheet-rich subunits; made in house
Text: A strictly analogous study performed with the K15A homotetrameric TTR mutant confirmed that K15 was essential for the observed chemoselective reaction between TTR and Compounds […] (FIG. 1A, bottom trace). […] However, it is important to note that Compounds 1-3 were only slightly less chemoselective (<5% reaction with K15A).
The ability of compounds A1 and A2, auxochromic analogs of previously discussed stilbenes [Klabunde et al., Nat. Struct. Biol. 2000, 7, 312-321; Connelly et al., Curr. Opin. Struc. Biol. 2010, 20, 54-62; Johnson et al., J. Med. Chem. 2008, 51, 6348-6358; Choi et al., J. Am. Chem. Soc. 2010, 132, 1359-1370; Choi et al., Nat. Chem. Biol. 2010, 6, 133-139; and Baures et al., Bioorg. Med. Chem. 1998, 6, 1389-1401] to form a chemoselective amide bond with the K15 residue of TTR was assessed by reverse-phase-HPLC and liquid chromatography-mass spectrometry analysis. […] The binding of the covalent modifier A2 to K15A-TTR (in the absence of amide bond conjugation) was confirmed by incubating A2 with K15A-TTR in phosphate buffer (pH 7) followed by K15A immunoisolation using a Sepharose® resin-conjugated anti-TTR polyclonal antibody [Purkey et al., Proc. Natl. Acad. Sci. U.S.A. 2001, 98, 5566-5571].
Recombinant WT-TTR was expressed as described previously [Lashuel et al., Biochemistry 38:13560-13573 (1999)]. For analysis of test compounds with TTR, each compound (1.5 μL in DMSO, 1.44 mM) was added to 300 μL of WT-TTR or K15A mutant TTR (3.6 μM, 10 mM sodium phosphate, 100 mM KCl, 1 mM EDTA, pH 7.0). The samples were vortexed, and incubated for 18 hours at 25° C. Reverse phase high performance liquid chromatography (RP-HPLC) was performed on a Water 600 E multi-solvent delivery system, using a Waters 486 tunable absorbance detector, a 717 autosampler, and a ThermoHypersil Keystone Betabasic-18 column μ150 Å pore size, 3 μm particle size, and mobile phase A; 0.1% TFA in 95% H2O+5% CH3CN and mobile phase B, 0.1% TFA in 95% CH3CN+5% H2O). Linear gradients were run from 100:0 to 0:100 A:B for 27 minutes.

K15A-TTR [3] = biological target: T2, K15A-TTR; assay: Non-covalent binding stoichiometry to K15A-TTR (immunocapture, HPLC); conditions: maximum of 2 equivalents, washing, high-pH dissociation
Text: K15A-TTR and any compound bound to it was immunocaptured using a Sepharose-resin-conjugated anti-TTR antibody.
The ability of compounds A1 and A2, auxochromic analogs of previously discussed stilbenes [Klabunde et al., Nat. Struct. Biol. 2000, 7, 312-321; Connelly et al., Curr. Opin. Struc. Biol. 2010, 20, 54-62; Johnson et al., J. Med. Chem. 2008, 51, 6348-6358; Choi et al., J. Am. Chem. Soc. 2010, 132, 1359-1370; Choi et al., Nat. Chem. Biol. 2010, 6, 133-139; and Baures et al., Bioorg. Med. Chem. 1998, 6, 1389-1401] to form a chemoselective amide bond with the K15 residue of TTR was assessed by reverse-phase-HPLC and liquid chromatography-mass spectrometry analysis. […]
To 1 mL of WT- or K15A-TTR (5 μM in pH 7.0 phosphate buffer) in a 2 mL Eppendorf tube was added A2 (5 μL of a 2 mM solution in DMSO, final concentration: 10 μM) and then the solution was incubated at 37° C. for 24 hours on a rocker plate (30 rpm). […] After centrifugation, the supernatant was analyzed by reverse phase HPLC on a Water 600 E multi-solvent delivery system, using a Waters 486 tunable absorbance detector, a 717 autosampler, and a ThermoHypersil Keystone Betabasic-18 column (150 Å pore size, 3 μm particle size). […]

Cc1cc(/C=C/c2cc(C(=O)Sc3ccc(F)cc3)cc(N(C)C)c2)cc(C)c1O [Compound A2, (E)-S-4-fluorophenyl 3-(dimethylamino)-5-(4-hydroxy-3,5-dimethylstyryl)-benzothioate]
% Modification of TTR subunits in Human Blood Plasma [1]: 48% | reaction with K15A-TTR (in words) (K15A-TTR [2]): no conjugation | equivalents non-covalently bound to K15A-TTR homotetramer (K15A-TTR [3]): 0.88 equivalents

Cc1cc(/C=C/c2cccc(C(=O)Oc3ccc(F)cc3)c2)cc(C)c1O [Compound 4, (E)-4-fluorophenyl 3-(4-hydroxy-3,5-dimethylstyryl)benzoate]
reaction with K15A-TTR (in words) (K15A-TTR [2]): no reaction could be detected | equivalents non-covalently bound to K15A-TTR homotetramer (K15A-TTR [3]): 1.4 equivalents

Cc1cc(/C=C/c2cccc(C(=O)Sc3ccccc3)c2)cc(C)c1O [Compound 2, (E)-S-phenyl 3-(4-hydroxy-3,5-dimethylstyryl)benzothioate]
% Modification of TTR subunits in Human Blood Plasma [1]: 48% (±1.3%)

Reference: patent US8703815B2, “Small molecules that covalently modify transthyretin” (The Scripps Research Institute, priority 2009, dated 2014)
